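1) Cells in 96-well plates. 2) Compound, 48 h, 5 concentrations. 3) Linear interpolation between surrounding doses. 4) Unreached endpoint = highest concentration. GI50 marks 50% less growth. At the TGI there is no net growth.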

One experiment deals with HT29 colon. Kind of experiment: NCI tumour cell line growth inhibition, 48 h.
For `COc1cc2ccc3c4cc(OC)c(OC(C)C)cc4cnc3c2cc1OC`, the TGI is > 100 µM.
With `N#C/C(=C/N1CCN(C(=O)c2ccco2)C1=S)C(=O)c1ccccc1`, the GI50 was 30.5 µM and the TGI was > 100 µM.
Consider `CN(CCCNC(=O)Cc1ccc2ccc3cccc4ccc1c2c34)CCCNc1cc(-c2ccc3ccccc3c2)nc2ccccc12`, for which the GI50 was 0.511 µM and the TGI worked out at 1.69 µM.
As to `CC(=O)c1sc(-c2nc(C)c(C(=O)/C=C\c3ccc(/C=C\C(=O)c4sc(-c5nc(C)c(C(C)=O)s5)nc4C)cc3)s2)nc1C`, the TGI was > 100 µM.
Same read-out and setting: the result for `Cc1ccc(C2(O)CC(c3ccc([N+](=O)[O-])o3)=NN2C(=O)COc2ccc(Cl)cc2)cc1` (configuration not stated) reads > 38.8 µM; that for `CC1=NN(C(=O)CC(=O)N(C(=O)c2ccccc2Cl)c2ccc(C)cc2)C(=O)C1N=Nc1ccc([N+](=O)[O-])cc1` (configuration not stated), > 100 µM; that for `CC(C)(C=O)CC(C#N)/C(=N\NC(N)=O)C(=O)Nc1ccccc1C(N)=O` (configuration not stated), > 100 µM.
Turning to `Cc1cc(C)c(C2[C@H]3C(=O)N(c4ccc(Cc5ccc(N6C(=O)[C@@H]7ON(c8ccccc8)C(c8c(C)cc(C)cc8C)[C@@H]7C6=O)cc5)cc4)C(=O)[C@H]3ON2c2ccccc2)c(C)c1` (some centres not stated), the TGI is > 100 µM.
On the same count and under the same terms, the result for `COc1ccc2[nH]c3c4c(ccc3c2c1)C(=O)C=CC4=O` reads 46.9 µM; that for `CCCCOC(=O)NC(=O)c1cn(CCCOC(=O)NCCCCCCNC(=O)OCCCn2cc(C(=O)NC(=O)OCCCC)c(=O)[nH]c2=O)c(=O)[nH]c1=O`, > 100 µM; that for `COc1cc(C)c2c(c1C)OC(=O)c1c(C)c(Cl)c(O)c(C=O)c1O2`, 70.3 µM.
As to `COC(=O)/C(C=O)=C/Sc1ccccc1`, the TGI was 81.3 µM.
On the same count and under the same terms, the result for `CC1(C)O/C(=C\c2ccccc2)C(=O)/C(=C/c2ccccc2)O1` reads > 100 µM; that for `O=C1CC2C(=O)N(Cc3ccccc3)C1C=C2S(=O)(=O)c1ccccc1` (configuration not stated), > 100 µM; that for `O=c1[nH]c2cc(Cl)ccc2nc1/C(=N\O)C(O)c1ccc(Cl)cc1Cl` (configuration not stated), > 100 µM.
In the case of `CC(C)CCCC(C)[C@H]1CCC2[C@H]3C(CC[C@@]21C)[C@@]1(C)CCC=C[C@]12C[C@@H]2[C@@H]3O` (some centres not stated), the TGI is > 100 µM.
On to `O=C(Nc1cc(Cl)ccc1Cl)C(=O)C(c1cnc2ccccc2n1)[N+](=O)[O-]` (configuration not stated), for which the TGI was > 100 µM.
Regarding `Cc1cc[c-]cc1.Fc1c[c-]c(-c2ccccn2)c(F)c1.[Pt+2].c1ccc(P(C[PH+](c2ccccc2)c2ccccc2)c2ccccc2)cc1`, the GI50 was 2.61 µM and the TGI is 12.4 µM.
Turning to `COC(=O)CCC(=O)CC1CC(=O)C2CCCN12` (configuration not stated), the TGI is > 100 µM.
As for `Cc1cc(NS(=O)(=O)c2ccc(Nc3c4ccccc4nc4c(C(=O)NCCN(C)C)cccc34)cc2)no1`, the TGI was > 100 µM.
Same read-out and setting: the result for `Nc1nc(CCl)nc(Nc2ccccc2)n1` reads 27.9 µM; that for `O=S1OC2(c3ccccc3-c3ccccc32)c2ccccc21` (configuration not stated), > 100 µM; that for `CCOC(=N)CC(=O)Nc1cccc(C)c1C`, > 100 µM.

In another experiment the test system is SR leukemia. As to the kind of experiment: NCI tumour cell line growth inhibition, 48 h.
On to `COc1cc2ccc3c4cc(OC)c(OC(C)C)cc4cnc3c2cc1OC`, for which the TGI is > 100 µM.
`N#C/C(=C/N1CCN(C(=O)c2ccco2)C1=S)C(=O)c1ccccc1`: the GI50 was 2.84 µM and the TGI is > 100 µM.
On to `CC(=O)c1sc(-c2nc(C)c(C(=O)/C=C\c3ccc(/C=C\C(=O)c4sc(-c5nc(C)c(C(C)=O)s5)nc4C)cc3)s2)nc1C`, for which the TGI is > 100 µM.
In turn, `Cc1ccc(C2(O)CC(c3ccc([N+](=O)[O-])o3)=NN2C(=O)COc2ccc(Cl)cc2)cc1` (configuration not stated) came in with a TGI of 6.52 µM.
Turning to `CC1=NN(C(=O)CC(=O)N(C(=O)c2ccccc2Cl)c2ccc(C)cc2)C(=O)C1N=Nc1ccc([N+](=O)[O-])cc1` (configuration not stated), the TGI was > 100 µM.
On the same count and under the same terms, the result for `CC(C)(C=O)CC(C#N)/C(=N\NC(N)=O)C(=O)Nc1ccccc1C(N)=O` (configuration not stated) reads > 100 µM; that for `Cc1cc(C)c(C2[C@H]3C(=O)N(c4ccc(Cc5ccc(N6C(=O)[C@@H]7ON(c8ccccc8)C(c8c(C)cc(C)cc8C)[C@@H]7C6=O)cc5)cc4)C(=O)[C@H]3ON2c2ccccc2)c(C)c1` (some centres not stated), > 100 µM; that for `COc1ccc2[nH]c3c4c(ccc3c2c1)C(=O)C=CC4=O`, 2.79 µM.
Same read-out and setting: the result for `CCCCOC(=O)NC(=O)c1cn(CCCOC(=O)NCCCCCCNC(=O)OCCCn2cc(C(=O)NC(=O)OCCCC)c(=O)[nH]c2=O)c(=O)[nH]c1=O` reads > 100 µM.
The same measure, in the same setting: the result for `COc1cc(C)c2c(c1C)OC(=O)c1c(C)c(Cl)c(O)c(C=O)c1O2` reads 31.9 µM; that for `COC(=O)/C(C=O)=C/Sc1ccccc1`, > 100 µM; that for `Nc1ccn(C2(CO)C=C(CO)C(O)C2O)c(=O)n1` (configuration not stated), > 25.8 µM.
`C=C1C[C@]23CCC4C(C)(C)C(=O)CC[C@]4(C)C2C[C@H]1C(O)C3=O` (some centres not stated): the TGI was > 75 µM.
`CC1(C)O/C(=C\c2ccccc2)C(=O)/C(=C/c2ccccc2)O1` registered a TGI of 75.3 µM.
Still for that read-out and setting: the result for `O=C1CC2C(=O)N(Cc3ccccc3)C1C=C2S(=O)(=O)c1ccccc1` (configuration not stated) reads > 100 µM; that for `O=c1[nH]c2cc(Cl)ccc2nc1/C(=N\O)C(O)c1ccc(Cl)cc1Cl` (configuration not stated), > 100 µM; that for `CC(C)CCCC(C)[C@H]1CCC2[C@H]3C(CC[C@@]21C)[C@@]1(C)CCC=C[C@]12C[C@@H]2[C@@H]3O` (some centres not stated), > 100 µM.
In the case of `O=C(Nc1cc(Cl)ccc1Cl)C(=O)C(c1cnc2ccccc2n1)[N+](=O)[O-]` (configuration not stated), the TGI is > 100 µM.
The same measure, in the same setting: the result for `COC(=O)CCC(=O)CC1CC(=O)C2CCCN12` (configuration not stated) reads > 100 µM; that for `Cc1cc(NS(=O)(=O)c2ccc(Nc3c4ccccc4nc4c(C(=O)NCCN(C)C)cccc34)cc2)no1`, > 100 µM.
Turning to `Nc1nc(CCl)nc(Nc2ccccc2)n1`, the TGI came to 33.7 µM.
As to `O=S1OC2(c3ccccc3-c3ccccc32)c2ccccc21` (configuration not stated), the TGI is > 100 µM.
`CCOC(=N)CC(=O)Nc1cccc(C)c1C`: the TGI is > 100 µM.

The subject of a further experiment is UACC-62 melanoma. Kind of experiment: NCI tumour cell line growth inhibition, 48 h.
In the case of `COc1cc2ccc3c4cc(OC)c(OC(C)C)cc4cnc3c2cc1OC`, the TGI is > 100 µM.
Take `N#C/C(=C/N1CCN(C(=O)c2ccco2)C1=S)C(=O)c1ccccc1`: the GI50 was 12.9 µM and the TGI came to 30.3 µM.
For the compound `CN(CCCNC(=O)Cc1ccc2ccc3cccc4ccc1c2c34)CCCNc1cc(-c2ccc3ccccc3c2)nc2ccccc12`, the GI50 is 1.88 µM and the TGI was 3.46 µM.
For the compound `CC(=O)c1sc(-c2nc(C)c(C(=O)/C=C\c3ccc(/C=C\C(=O)c4sc(-c5nc(C)c(C(C)=O)s5)nc4C)cc3)s2)nc1C`, the TGI is > 100 µM.
As to `Cc1ccc(C2(O)CC(c3ccc([N+](=O)[O-])o3)=NN2C(=O)COc2ccc(Cl)cc2)cc1` (configuration not stated), the TGI worked out at 15.1 µM.
Still for that read-out and setting: the result for `CC1=NN(C(=O)CC(=O)N(C(=O)c2ccccc2Cl)c2ccc(C)cc2)C(=O)C1N=Nc1ccc([N+](=O)[O-])cc1` (configuration not stated) reads > 53.7 µM.
On the same count and under the same terms, the result for `CC(C)(C=O)CC(C#N)/C(=N\NC(N)=O)C(=O)Nc1ccccc1C(N)=O` (configuration not stated) reads > 100 µM; that for `Cc1cc(C)c(C2[C@H]3C(=O)N(c4ccc(Cc5ccc(N6C(=O)[C@@H]7ON(c8ccccc8)C(c8c(C)cc(C)cc8C)[C@@H]7C6=O)cc5)cc4)C(=O)[C@H]3ON2c2ccccc2)c(C)c1` (some centres not stated), > 100 µM; that for `COc1ccc2[nH]c3c4c(ccc3c2c1)C(=O)C=CC4=O`, 36 µM.
The same measure, in the same setting: the result for `CCCCOC(=O)NC(=O)c1cn(CCCOC(=O)NCCCCCCNC(=O)OCCCn2cc(C(=O)NC(=O)OCCCC)c(=O)[nH]c2=O)c(=O)[nH]c1=O` reads > 100 µM.
